Assay results published in the NIST ThermoML archive (doi:10.1021/acs.jced.8b00011).
Values joined by “and” are separate entries in the source; they are usually repeats but may differ in a detail not shown here. Equal values may be shown once.

Settings: Liquid; for mass density: Vibrating tube method; for electrical conductivity: electrochemical impedance spectroscopy

CCCCC[P+](CC)(CC)CC.O=S(=O)([N-]S(=O)(=O)C(F)(F)F)C(F)(F)F
Settings	electrical conductivity	mass density
323.15 K, 5000 kPa	–	1286.05 kg/m3
323.15 K, 10000 kPa	–	1289.93 kg/m3
323.15 K, 15000 kPa	–	1293.65 kg/m3
323.15 K, 20000 kPa	–	1297.31 kg/m3
323.15 K, 25000 kPa	–	1300.84 kg/m3
323.15 K, 30000 kPa	–	1304.31 kg/m3
323.15 K, 35000 kPa	–	1307.72 kg/m3
323.15 K, 40000 kPa	–	1311.03 kg/m3
323.15 K, 45000 kPa	–	1314.23 kg/m3
323.15 K, 50000 kPa	–	1317.43 kg/m3
328.15 K, 101.33 kPa	0.515 S/m and 0.516 S/m	–
333.15 K, 100 kPa	–	1273.44 kg/m3 [middle of 6 runs]
333.15 K, 101.33 kPa	0.598 S/m and 0.6 S/m	–
333.15 K, 1000 kPa	–	1274.41 kg/m3
333.15 K, 5000 kPa	–	1277.68 kg/m3
333.15 K, 10000 kPa	–	1281.66 kg/m3
333.15 K, 15000 kPa	–	1285.53 kg/m3
333.15 K, 20000 kPa	–	1289.3 kg/m3
333.15 K, 25000 kPa	–	1292.91 kg/m3
333.15 K, 30000 kPa	–	1296.47 kg/m3
333.15 K, 35000 kPa	–	1299.98 kg/m3
333.15 K, 40000 kPa	–	1303.38 kg/m3
333.15 K, 45000 kPa	–	1306.68 kg/m3
333.15 K, 50000 kPa	–	1309.96 kg/m3
338.15 K, 101.33 kPa	0.687 S/m and 0.689 S/m	–
343.15 K, 100 kPa	–	1264.95 kg/m3 [middle of 6 runs]
343.15 K, 101.33 kPa	0.784 S/m and 0.786 S/m	–
343.15 K, 1000 kPa	–	1265.61 kg/m3
343.15 K, 5000 kPa	–	1269.03 kg/m3
343.15 K, 10000 kPa	–	1273.12 kg/m3
343.15 K, 15000 kPa	–	1277.12 kg/m3
343.15 K, 20000 kPa	–	1280.98 kg/m3
343.15 K, 25000 kPa	–	1284.76 kg/m3
343.15 K, 30000 kPa	–	1288.39 kg/m3
343.15 K, 35000 kPa	–	1291.99 kg/m3
343.15 K, 40000 kPa	–	1295.5 kg/m3
343.15 K, 45000 kPa	–	1298.89 kg/m3
343.15 K, 50000 kPa	–	1302.23 kg/m3
348.15 K, 101.33 kPa	0.885 S/m and 0.887 S/m	–
348.16 K, 101.33 kPa	0.877 S/m	–
353.15 K, 100 kPa	–	1256.32 kg/m3 [middle of 5 runs]
353.15 K, 101.33 kPa	0.999 S/m and 1 S/m	–
353.15 K, 1000 kPa	–	1256.5 kg/m3
353.15 K, 5000 kPa	–	1260.01 kg/m3
353.15 K, 10000 kPa	–	1264.27 kg/m3
353.15 K, 15000 kPa	–	1268.38 kg/m3
353.15 K, 20000 kPa	–	1272.39 kg/m3
353.15 K, 25000 kPa	–	1276.24 kg/m3
353.15 K, 30000 kPa	–	1280.04 kg/m3
353.15 K, 35000 kPa	–	1283.68 kg/m3
353.15 K, 40000 kPa	–	1287.28 kg/m3
353.15 K, 45000 kPa	–	1290.77 kg/m3
353.15 K, 50000 kPa	–	1294.22 kg/m3
363.15 K, 100 kPa	–	1248.72 kg/m3 [middle of 4 runs]

Settings	electrical conductivity [S/m]	viscosity
323.15 K, 5900 kPa, Frequency=0 MHz	0.411	–
323.15 K, 10600 kPa, Falling or rolling sphere viscometry	–	33.85 mPa·s
323.15 K, 10600 kPa, Frequency=0 MHz	0.393	–
323.15 K, 20500 kPa, Falling or rolling sphere viscometry	–	37.97 mPa·s
323.15 K, 30600 kPa, Falling or rolling sphere viscometry	–	42.53 mPa·s
323.15 K, 40300 kPa, Falling or rolling sphere viscometry	–	47.23 mPa·s
323.15 K, 50500 kPa, Falling or rolling sphere viscometry	–	52.72 mPa·s
323.15 K, 60300 kPa, Falling or rolling sphere viscometry	–	58.3 mPa·s
323.15 K, 77000 kPa, Frequency=0 MHz	0.211	–
323.15 K, 80500 kPa, Falling or rolling sphere viscometry	–	71.43 mPa·s
323.15 K, 100200 kPa, Falling or rolling sphere viscometry	–	86.46 mPa·s
323.15 K, 120600 kPa, Falling or rolling sphere viscometry	–	104.7 mPa·s
323.15 K, 126900 kPa, Frequency=0 MHz	0.138	–
323.15 K, 140600 kPa, Falling or rolling sphere viscometry	–	125.7 mPa·s
323.15 K, 160500 kPa, Falling or rolling sphere viscometry	–	149.6 mPa·s
323.15 K, 180500 kPa, Falling or rolling sphere viscometry	–	178.5 mPa·s
323.15 K, 200300 kPa, Falling or rolling sphere viscometry	–	210.1 mPa·s
323.15 K, 201300 kPa, Frequency=0 MHz	0.0751	–
323.15 K, 210900 kPa, Falling or rolling sphere viscometry	–	232.2 mPa·s
323.15 K, 225200 kPa, Frequency=0 MHz	0.0625	–
323.15 K, 250100 kPa, Frequency=0 MHz	0.0517	–
323.16 K, 14400 kPa, Frequency=0 MHz	0.378	–
323.16 K, 20500 kPa, Frequency=0 MHz	0.356	–
323.16 K, 25800 kPa, Frequency=0 MHz	0.338	–
323.16 K, 30200 kPa, Frequency=0 MHz	0.324	–
323.16 K, 40000 kPa, Frequency=0 MHz	0.295	–
323.16 K, 49900 kPa, Frequency=0 MHz	0.269	–
333.15 K, 100 kPa, Concentric cylinders viscometry	–	21.51 mPa·s
333.15 K, 100 kPa, Falling or rolling sphere viscometry	–	21.43 mPa·s [middle of 4 runs]
333.15 K, 700 kPa, Falling or rolling sphere viscometry	–	21.55 mPa·s
333.15 K, 10400 kPa, Falling or rolling sphere viscometry	–	23.8 mPa·s
333.15 K, 10600 kPa, Falling or rolling sphere viscometry	–	24.11 mPa·s
333.15 K, 19700 kPa, Falling or rolling sphere viscometry	–	26.33 mPa·s
333.15 K, 20300 kPa, Falling or rolling sphere viscometry	–	26.81 mPa·s
333.15 K, 30600 kPa, Falling or rolling sphere viscometry	–	29.93 mPa·s and 29.71 mPa·s
333.15 K, 40300 kPa, Falling or rolling sphere viscometry	–	32.65 mPa·s
333.15 K, 40600 kPa, Falling or rolling sphere viscometry	–	33.21 mPa·s
333.15 K, 50400 kPa, Falling or rolling sphere viscometry	–	36.22 mPa·s
333.15 K, 50600 kPa, Falling or rolling sphere viscometry	–	36.73 mPa·s
333.15 K, 60500 kPa, Falling or rolling sphere viscometry	–	40.1 mPa·s
333.15 K, 60600 kPa, Falling or rolling sphere viscometry	–	40.52 mPa·s
333.15 K, 80200 kPa, Falling or rolling sphere viscometry	–	48.82 mPa·s
333.15 K, 99600 kPa, Falling or rolling sphere viscometry	–	58.36 mPa·s
343.15 K, 100 kPa, Concentric cylinders viscometry	–	15.99 mPa·s
343.15 K, 100 kPa, Falling or rolling sphere viscometry	–	15.89 mPa·s and 15.97 mPa·s
348.14 K, 10700 kPa, Frequency=0 MHz	0.8	–
348.14 K, 225100 kPa, Frequency=0 MHz	0.167	–
348.15 K, 100 kPa, Falling or rolling sphere viscometry	–	13.81 mPa·s [middle of 7 runs]
348.15 K, 600 kPa, Falling or rolling sphere viscometry	–	13.91 mPa·s
348.15 K, 1100 kPa, Frequency=0 MHz	0.871	–
348.15 K, 1700 kPa, Frequency=0 MHz	0.865	–
348.15 K, 3100 kPa, Frequency=0 MHz	0.855	–
348.15 K, 5100 kPa, Frequency=0 MHz	0.84	–
348.15 K, 10500 kPa, Falling or rolling sphere viscometry	–	15.46 mPa·s
348.15 K, 15700 kPa, Frequency=0 MHz	0.766	–
348.15 K, 20600 kPa, Falling or rolling sphere viscometry	–	17.36 mPa·s
348.15 K, 20800 kPa, Frequency=0 MHz	0.734	–
348.15 K, 25700 kPa, Frequency=0 MHz	0.704	–
348.15 K, 30600 kPa, Falling or rolling sphere viscometry	–	18.78 mPa·s
348.15 K, 30800 kPa, Frequency=0 MHz	0.675	–
348.15 K, 40200 kPa, Frequency=0 MHz	0.625	–
348.15 K, 40700 kPa, Falling or rolling sphere viscometry	–	20.72 mPa·s
348.15 K, 50700 kPa, Falling or rolling sphere viscometry	–	22.73 mPa·s
348.15 K, 51400 kPa, Falling or rolling sphere viscometry	–	22.92 mPa·s
348.15 K, 60700 kPa, Falling or rolling sphere viscometry	–	25.33 mPa·s
348.15 K, 70400 kPa, Falling or rolling sphere viscometry	–	27.64 mPa·s
348.15 K, 76000 kPa, Frequency=0 MHz	0.473	–
348.15 K, 80600 kPa, Falling or rolling sphere viscometry	–	29.75 mPa·s
348.15 K, 89800 kPa, Falling or rolling sphere viscometry	–	32.25 mPa·s
348.15 K, 99100 kPa, Falling or rolling sphere viscometry	–	34.86 mPa·s
348.15 K, 100500 kPa, Falling or rolling sphere viscometry	–	35.04 mPa·s
348.15 K, 125700 kPa, Falling or rolling sphere viscometry	–	42.64 mPa·s
348.15 K, 126600 kPa, Falling or rolling sphere viscometry	–	43.88 mPa·s
348.15 K, 126600 kPa, Frequency=0 MHz	0.326	–
348.15 K, 150600 kPa, Falling or rolling sphere viscometry	–	52.08 mPa·s
348.15 K, 150800 kPa, Falling or rolling sphere viscometry	–	52.23 mPa·s
348.15 K, 152400 kPa, Frequency=0 MHz	0.272	–
348.15 K, 175600 kPa, Falling or rolling sphere viscometry	–	63.12 mPa·s
348.15 K, 199600 kPa, Falling or rolling sphere viscometry	–	75.5 mPa·s
348.15 K, 200900 kPa, Frequency=0 MHz	0.196	–
348.15 K, 237000 kPa, Falling or rolling sphere viscometry	–	99.1 mPa·s
348.15 K, 242900 kPa, Falling or rolling sphere viscometry	–	104.9 mPa·s
348.15 K, 250900 kPa, Frequency=0 MHz	0.141	–
348.16 K, 100 kPa, Frequency=0 MHz	0.877	–
348.16 K, 50000 kPa, Frequency=0 MHz	0.577	–
348.16 K, 103000 kPa, Frequency=0 MHz	0.384	–
348.16 K, 176100 kPa, Frequency=0 MHz	0.231	–
353.15 K, 100 kPa, Concentric cylinders viscometry	–	12.27 mPa·s
353.15 K, 100 kPa, Falling or rolling sphere viscometry	–	12 mPa·s and 11.96 mPa·s
363.15 K, 100 kPa, Concentric cylinders viscometry	–	9.672 mPa·s
363.15 K, 100 kPa, Falling or rolling sphere viscometry	–	9.358 mPa·s and 9.337 mPa·s and 9.414 mPa·s
363.15 K, 9700 kPa, Falling or rolling sphere viscometry	–	10.37 mPa·s
363.15 K, 20100 kPa, Falling or rolling sphere viscometry	–	11.57 mPa·s
363.15 K, 20500 kPa, Falling or rolling sphere viscometry	–	11.52 mPa·s
363.15 K, 30200 kPa, Falling or rolling sphere viscometry	–	12.72 mPa·s
363.15 K, 39200 kPa, Falling or rolling sphere viscometry	–	13.83 mPa·s
363.15 K, 49400 kPa, Falling or rolling sphere viscometry	–	15.21 mPa·s
363.15 K, 59100 kPa, Falling or rolling sphere viscometry	–	16.63 mPa·s
363.15 K, 80200 kPa, Falling or rolling sphere viscometry	–	19.84 mPa·s
363.15 K, 102200 kPa, Falling or rolling sphere viscometry	–	23.51 mPa·s
363.15 K, 102500 kPa, Falling or rolling sphere viscometry	–	23.47 mPa·s
363.15 K, 124000 kPa, Falling or rolling sphere viscometry	–	27.54 mPa·s
363.15 K, 125400 kPa, Falling or rolling sphere viscometry	–	27.86 mPa·s
363.15 K, 147300 kPa, Falling or rolling sphere viscometry	–	32.93 mPa·s
363.15 K, 149300 kPa, Falling or rolling sphere viscometry	–	33.43 mPa·s
363.15 K, 172900 kPa, Falling or rolling sphere viscometry	–	39.05 mPa·s
363.15 K, 200700 kPa, Falling or rolling sphere viscometry	–	47.56 mPa·s
363.15 K, 212300 kPa, Falling or rolling sphere viscometry	–	51.41 mPa·s
